Assay results taken from patent publication US9629884B2, “Compositions and methods for increasing lifespan and health span” (GENEREX PHARMACEUTICALS, INC., priority 2009, dated 2017).

Assay: Blood glucose level in a diabetic patient (mercy treatment)
Assay type: in vivo, human
Conditions: Diamicron 80 mg, 2 tablets every morning, before OEGJ
Description: Based on the above-mentioned rationale, the possibility of using OEGJ for the treatment of diabetes was tested in diabetics on the basis of mercy treatment. A person was first diagnosed with diabetes before undergoing hemorrhoid surgery a year before treatment. Their blood glucose level at that time was 24.0 mmol/L. They were put on insulin treatment for a week and started to take diabetes medicine (Diamicron 80 mg, 2 tablets every morning under fasting condition).

## Cc1ccc(S(=O)(=O)NC(=O)NN2CC3CCCC3C2)cc1 (stereo not shown) [Diamicron]
  average blood glucose level during six-month period on the medication: 9.97 mmol/L
